“Also recorded” adds a separate entry of the source.
What was measured:
[1] = Plasma pharmacokinetics of cocaine and benzoylecgonine after IV cocaine-d5 infusion; conditions: for Cmax: cocaine-d5 IV 0.5 mg/kg over 10 min then 2 mg/kg over 4 h; for Cmax / (t1/2)z / AUC (0-∞) / AUC(0-t) / AUCext / Tmax / λz: mean ± SD
Protocol: In this open-label, unblinded study, a 0.5 mg/kg intravenous loading dose of cocaine-d5 HCl over 10 minutes was followed by a slow 4 hour constant rate cocaine-d5 infusion of 2.0 mg/kg(~175 mg for a 70 kg person). […] When this method of cocaine administration is utilized, a larger dose can be given over a longer period of time and approximates frequently reported patterns of cocaine use. This method also allowed for close monitoring and termination of the infusion if untoward psychiatric or cardiovascular effects occurred.
For both cocaine infusions (sessions 1 and 2), plasma samples for cocaine and metabolites (~6 ml) were obtained 5 minutes before and 10 minutes, 0.5, 1, 1.5, 2, 4, 4.25, 4.5, 5, 6, 8, 12, 21, 27, 33, and 45 hours after each cocaine infusion.
Plasma concentrations of cocaine and benzoylecgonine were measured in our laboratory using a method we developed. The method allows for simultaneous determination of cocaine, benzoylecgonine, and deuterium-labeled analogs [cocaine-d5 and benzoylecgonine-d5 (BE-d5)] by using combined gas chromatography-mass spectrometry (GC-MS). Differently labeled stable isotope analogs were used as internal standards. The calibration curves were from 5 to 2,000 ng/mL for cocaine-d5 and 10 to 2,000 ng/mL for BE-d5. Lower limits of quantitation (LLOQ) were 5 ng/ml (cocaine-d5) and 10 ng/ml (BE-d5) in plasma. Qualitative urine benzoylecgonine was measured by Northwest Toxicology Laboratory, Salt Lake City, Utah, using the Roche Diagnostics Online® immunoassay.
The plasma concentration-time profiles for cocaine and benzoylecgonine (BE) were analyzed by non-compartmental methods, utilizing the pharmacokinetic data analysis program WinNonlin Pro, version 3.0 [31].
The area under the plasma concentration-time curve was calculated using the linear trapezoidal rule up to the maximum plasma concentration, and thereafter using the logarithmic trapezoidal rule to the last measurable plasma concentration. The remaining area was extrapolated to infinity by dividing the last appropriate plasma concentration by the terminal exponential rate constant.
Maximum plasma concentration (Cmax) and time of maximum plasma concentration (Tmax) were determined by visual inspection of data. "Terminal" exponential half-life [(t1/2)z] was calculated from log-linear regression of "terminal" exponential phase data points. Cocaine clearance (CL) and terminal exponential volume of distribution (Vz) were calculated by conventional equations: CL = [Dose/Area under the curve (AUC)0-∞] and Vz = CL/λz, respectively, where λz ("terminal" exponential rate constant) = ln2/(t1/2)z. […] Amount of BE in urine samples was calculated by multiplying concentration by volume.

[2] = Selegiline and metabolites excreted in 24 hour urine collections; format: in vivo, human; design: unit not given here; conditions: Mean ± SD, N = 12
Protocol: (§1) When subjects were in the GCRC, all urine was collected and volumes recorded. Following each cocaine infusion, urine was collected in fractions from 0 to 24, 24 to 48, and 48 to 72 hours (timed from the start of the infusion). Samples were then frozen at -70°C until analyzed. […] A qualitative screen for drugs of abuse was obtained every other day for the entire study period.
(§2) All analyses employed a one-factor repeated-measures analysis of variance (ANOVA), with all parameters analyzed as their logarithmic (natural) transforms. If a day effect was found between days 9, 11, 12, and 13, a Tukey multiple comparison procedure was employed posthoc to compare the days in pairs. A test for linear trend was included. All probability estimates presented are based on the Type III sums of squares.

[3] = system: nondependent cocaine-experienced subjects; experiment: Physiologic measures during cocaine challenge sessions; format: in vivo, human; conditions: session 2 vs session 1; peak effects and effects across time
Protocol: Heart rate, systolic and diastolic blood pressure were measured using a cardiovascular monitor (Dinamap by Critikon, Vital Signs Monitor 1846 SX). Rate pressure product was calculated as the product of systolic blood pressure and heart rate. Respiration rate was measured by counting the number of inhalations per minute. These vital signs were determined with the patient in a supine position for at least 10 minutes.
(§3) Heart rate, blood pressure, respiration rate, skin and core temperature were recorded at specific times during the study. During infusions, measures were obtained pre-dose and at 0.17, 0.5, 0.75, 1, 1.5, 2, 2.5, 3, 3.5, 4, 4.25, 4.5, 5, 6, 8, 12, 18, 24, 36, 48, and 72 hours after dosing. The electrocardiogram was monitored continuously during the infusion and for 4 hours after the termination of the intravenous cocaine infusion. EKG tracings were recorded at each data collection point.
(§4) The time courses of physiologic and subjective data were analyzed by repeated measures analysis of variance (ANOVA). Treatment conditions (Sessions 1 and 2) and observation times (hours post-dose) were considered within-subject factors. Change scores (post-dose minus pre-dose values) were used in most analyses. Raw score were used where indicated. After a significant F test, pairwise comparisons of treatment conditions were performed using the least squares means analysis. Peak effects within a session were determined for each subject and each variable and analyzed using a one-factor repeated measures ANOVA. Effects were considered statistically significant at p = 0.05. Data were adjusted for sphericity using the Huynh-Feldt adjustment factor. Huynh-Feldt-corrected significance values are reported.

[4] = system: nondependent cocaine-experienced subjects; experiment: Subjective measures (verbal ratings, visual analog scales, POMS) during cocaine challenge sessions; format: in vivo, human
Description: Verbal ratings of global intoxication and craving (on a scale of 0 to 100) were obtained at the same time points as the physiologic measures, with 0 representing no drug effect and 100 representing the highest level of intoxication or craving.
Visual analog scales were used to rate the degree of drug liking by moving an arrow along a 10 cm line marked at opposite ends as 0 (not at all) and 100 (extreme) using a hand-held computer (Tandy 102). Items rated on the visual analog scale included "good drug effect" and "bad drug effect," and were obtained prior to cocaine infusion and at 0.17, 0.5, 0.75, 1, 1.5, 2, 2.5, 3, 3.5, 4, 4.25, 4.5, 5, 6, and 8 hours after dosing.
The Profile of Mood States (POMS) assessed mood changes in Anger, Confusion, Fatigue, Tension, and Vigor on a scale from 0 to 4, where 0 indicated "no effect" and 4 indicates "extremely strong". Ratings were obtained prior to cocaine infusion and at 1, 3, and 6 hours after dosing.
as §4

noradrenergic tone = experiment: Urinary MHPG-S excretion (surrogate for noradrenergic tone, MAO-A metabolite); format: in vivo, human
Description: The interactions between MAO-A inhibitors and cocaine administered are largely unexplored. […] Therefore, measurement of dopaminergic and noradrenergic tone may be important in predicting toxic events. We measured dopaminergic tone with the surrogate marker of plasma HVA, the major brain metabolite of dopamine, and serum levels of prolactin, a hormone whose secretion is inhibited by dopamine. The surrogate for noradrenergic tone was urine concentrations of MHPG-S. In order to assess the degree of MAO-A and MAO-B inhibition, we assayed concentrations of a substrate of MAO-B, phenylethylamine (PEA). PEA would be expected to increase with MAO-B inhibition, and concentrations of MHPG-S, which is a metabolite of norepinephrine produced by MAO-A primarily in the brain [20], would be expected to decrease.
as §1
Concentrations of MHPG-S in urine were determined using LC-MS/MS [29]. […] As urinary creatinine excretion is directly related to glomerular filtration and renal blood flow, and urinary creatinine excretion is relatively constant (~1 gm/day), it can be used to estimate concentrations of a substance during a 24 hour urine collection period. Using ratios of the concentrations of MHPG-S to creatinine obtained from assays of these spot urine samples, MGPG-S concentrations during the outpatient period (when subjects would be unlikely to provide accurate 24 hour urine collections) were compared to those from urine samples on inpatient days.

[5] = system: nondependent cocaine-experienced subjects; experiment: Adverse events and cardiovascular safety monitoring; format: in vivo, human; conditions: STS 6 mg/24 hours
Protocol: as §3

[6] = Trough plasma concentrations of selegiline and metabolites; format: in vivo, human; conditions: days 9, 11, 12, and 13 of STS; p for linear trend <0.001 (l-methamphetamine) and <0.01 (l-amphetamine)
Description: as §2

[7] = Pre Selegiline (session 1), plasma
[8] = With Selegiline (session 2), plasma
[9] = 0–24 hours after cocaine (day 11), STS 6 mg/24 hours
[10] = 24–48 hours after cocaine (day 12), STS 6 mg/24 hours
[11] = 48–72 hours after cocaine (day 13), no patch applied at 9 AM on day 14

CN1[C@H]2CC[C@@H]1[C@@H](C(=O)O)[C@@H](OC(=O)c1ccccc1)C2 [Benzoyl-ecgonine, benzoylecgonine]
Cmax [1, 7]: 1045 ± 180 ng/mL
(t1/2)z [1, 7]: 8.63 ± 5.36 h
AUC (0-∞) [1, 7]: 13600 ± 3820 ng·h/mL
AUC(0-t) [1, 7]: 13000 ± 3030 ng·h/mL
AUCext [1, 7]: 3.45 ± 6.45%
Tmax [1, 7]: 4.79 ± 0.50 h
λz [1, 7]: 0.0928 ± 0.023 h⁻¹
(t1/2)z [1, 8]: 7.52 ± 1.82 h
AUC (0-∞) [1, 8]: 13200 ± 4180 ng·h/mL
AUC(0-t) [1, 8]: 12900 ± 3760 ng·h/mL
AUCext [1, 8]: 2.21 ± 2.24%
Tmax [1, 8]: 5.04 ± 0.65 h
λz [1, 8]: 0.0971 ± 0.024 h⁻¹
Cmax ([1]; With Selegiline (session 2, after one week STS 6 mg/24 hours), plasma): 957 ± 184 ng/mL
BE AUC relative to that of cocaine ([1]; plasma, after IV cocaine-d5 infusion): approximately 5.9 times

C#CCNC(C)Cc1ccccc1 (centres unmarked) [Desmethylselegiline, n-desmethylselegiline]
Excreted in the 24 Hour Urine [2, 9]: 0.184 ± 0.128
Excreted in the 24 Hour Urine [2, 10]: 0.188 ± 0.162
Excreted in the 24 Hour Urine [2, 11]: 0.082 ± 0.086

C#CCN(C)[C@H](C)Cc1ccccc1 [Selegiline, selegiline]
Effect of selegiline on cocaine or BE plasma pharmacokinetics ([1]; after removal of the two outliers, STS 6 mg/24 hours for one week): No effect
Excreted in the 24 Hour Urine [2, 9]: 0.109 ± 0.073
Excreted in the 24 Hour Urine [2, 10]: 0.145 ± 0.138
Excreted in the 24 Hour Urine [2, 11]: 0.063 ± 0.097
Effect of selegiline on cocaine-induced physiological effects [3]: Neither peak effects (Table 3) nor physiological effects across time were affected
Verbal ratings of craving, second session vs first ([4]; between 1.5 and 4.5 hours after cocaine, condition × time significant): lower
POMS anger, tension and total score scales across time, second session vs first ([4]; second cocaine session (after selegiline)): significantly different (lower)
Total Amount of MHPG-S Excreted in the 24 Hour Urine Collection (noradrenergic tone; Day 4–5, 0–24 hr Postselegiline): 1.43 ± 0.40 mg
Total Amount of MHPG-S Excreted in the 24 Hour Urine Collection (noradrenergic tone; Day 11–12 Selegiline Phase 1st Day After Cocaine): 1.09 ± 0.23 mg
Total Amount of MHPG-S Excreted in the 24 Hour Urine Collection (noradrenergic tone; Day 12–13 Selegiline Phase 2nd Day After Cocaine): 1.07 ± 0.40 mg
Total Amount of MHPG-S Excreted in the 24 Hour Urine Collection (noradrenergic tone; Day 13–14 Selegiline Phase 3rd Day After Cocaine, no patch applied at 9 AM on Day 14): 1.01 ± 0.33 mg
Adverse events ([5]; cocaine-d5 IV 2.5 mg/kg over 4 hours, 2.5 mg/kg): One subject reported erectile dysfunction; also recorded: One subject experienced anxiety and one reported insomnia
Cardiovascular adverse effects (orthostatic vital signs and cardiovascular monitoring) ([5]; selegiline maintenance phase): no adverse cardiovascular effects

CN[C@H](C)Cc1ccccc1 [l-Methamphetamine, l-methamphetamine]
Excreted in the 24 Hour Urine [2, 9]: 6.26 ± 2.28
Excreted in the 24 Hour Urine [2, 10]: 8.51 ± 5.69
Excreted in the 24 Hour Urine [2, 11]: 4.83 ± 1.55
Trough plasma concentrations over time [6]: increased over time

— publication PMC2731040 (BMC Clinical Pharmacology, 2009)
